From ChEMBL document CHEMBL4321839, “Structure-activity relationships (SAR) of triazine derivatives: Promising antimicrobial agents” (Eur J Med Chem, 2020)
In brackets after ≈: the same amount, converted by molar mass.

Legend:
[1] = system: Nakaseomyces glabratus; assay: Antifungal activity against Candida glabrata NCIM-3266 at 18 to 24 hrs by CLSI based alamar blue assay; format: functional
[2] = system: Cryptococcus neoformans; assay: Antifungal activity against Cryptococcus neoformans NCIM-3542 at 72 hrs by CLSI based alamar blue assay; format: functional; settings: NCIM-3542, 72 h
[3] = system: Aspergillus niger; assay: Antifungal activity against Aspergillus niger NCIM-620 at 72 hrs by CLSI based alamar blue assay; format: functional; settings: NCIM-620, 72 h
[4] = system: Candida albicans; assay: Antifungal activity against Candida albicans NCIM-3102 at 18 to 24 hrs by CLSI based alamar blue assay; format: functional
[5] = system: Escherichia coli; assay: Antimicrobial activity multi drug-resistant against Escherichia coli; format: functional
[6] = system: Staphylococcus aureus; assay: Antimicrobial activity methicillin-resistant against Staphylococcus aureus; format: functional
[7] = system: Pseudomonas aeruginosa; assay: Antimicrobial activity against Pseudomonas aeruginosa NCIM-2036 after 24 hrs by CLSI based broth dilution method; format: functional; settings: NCIM-2036, 24 h
[8] = system: Bacillus cereus; assay: Antimicrobial activity against Bacillus cereus NCIM-2156 assessed as zone of inhibition at 5 ug after 24 hrs by disk diffusion method; format: functional; settings: NCIM-2156, 24 h, read-out: IZ
[9] = system: Bacillus subtilis; assay: Antimicrobial activity against Bacillus subtilis NCIM-2063 assessed as zone of inhibition at 5 ug after 24 hrs by disk diffusion method; format: functional; settings: NCIM-2063, 24 h, read-out: IZ
[10] = system: Pseudomonas aeruginosa; assay: Antimicrobial activity against Pseudomonas aeruginosa NCIM-2036 assessed as zone of inhibition at 5 ug after 24 hrs by disk diffusion method; format: functional; settings: NCIM-2036, 24 h, read-out: IZ
[11] = system: Staphylococcus aureus; assay: Antimicrobial activity against Staphylococcus aureus NCIM-2079 assessed as zone of inhibition at 5 ug after 24 hrs by disk diffusion method; format: functional; settings: NCIM-2079, 24 h, read-out: IZ
[12] = system: Staphylococcus aureus; assay: Antimicrobial activity against methicillin-resistant Staphylococcus aureus clinical isolate MRSA1 assessed as reduction in microbial growth by two-fold serial dilution method; format: functional
[13] = Cytotoxicity against African green monkey Vero cells incubated for 72 hrs by MTT assay; format: cell-based; settings: chlorocebus sabaeus
[14] = system: Escherichia coli; assay: Antimicrobial activity against Escherichia coli ATCC 25922 assessed as reduction in microbial growth after 24 to 48 hrs by microdilution susceptibility test; format: functional
[15] = system: Staphylococcus aureus; assay: Antimicrobial activity against Staphylococcus aureus […] assessed as reduction in microbial growth after 24 to 48 hrs by microdilution susceptibility test; format: functional
[16] = system: Klebsiella pneumoniae; assay: Antimicrobial activity against multi drug-resistant Klebsiella pneumoniae assessed as reduction in microbial growth by two-fold serial dilution method; format: functional
[17] = system: Escherichia coli; assay: Antimicrobial activity against Escherichia coli MTCC 443 assessed as reduction in microbial growth after 24 to 48 hrs by broth dilution method; format: functional
[18] = system: Pseudomonas aeruginosa; assay: Antimicrobial activity against Pseudomonas aeruginosa MTCC 1688 assessed as reduction in microbial growth after 24 to 48 hrs by broth dilution method; format: functional
[19] = system: Escherichia coli; assay: Antimicrobial activity against multi drug-resistant Escherichia coli assessed as reduction in microbial growth after 24 to 48 hrs by microdilution susceptibility test; format: functional
[20] = system: Staphylococcus aureus; assay: Antimicrobial activity against methicillin-resistant Staphylococcus aureus assessed as reduction in microbial growth after 24 to 48 hrs by microdilution susceptibility test; format: functional

## c1ccc(-c2csc(Nc3nc(N4CCOCC4)nc(N4CCOCC4)n3)n2)cc1
[1]
  MIC: 0.63 to 5 µg/mL (≈ 1.48 to 11.8 µM)
[2]
  MIC: 0.63 to 5 µg/mL (≈ 1.48 to 11.8 µM)
[3]
  MIC: 0.63 to 5 µg/mL (≈ 1.48 to 11.8 µM)
[4]
  MIC: 0.63 to 5 µg/mL (≈ 1.48 to 11.8 µM)

## Cc1ccc(C2=NN=C3C(F)CC4=C(C(C5CC5)C=C(C(=O)O)C4=O)N3C2)cc1 (stereo unspecified)
[5]
  MIC: 0.25 µg/mL (≈ 0.635 µM)
[6]
  MIC: 0.5 µg/mL (≈ 1.27 µM)

## CC1=NN(c2ccccc2)C(C)C1Nc1nnc(Sc2nc(Nc3ccc(F)cc3)nc(Nc3ccc(F)cc3)n2)s1 (stereo unspecified)
[7]
  MIC: 6.25 µg/mL (≈ 10.4 µM)

## CC1=NN(c2ccccc2)C(C)C1Nc1nnc(Sc2nc(Nc3ccc(Br)cc3)nc(Nc3ccc(Br)cc3)n2)s1 (stereo unspecified)
[7]
  MIC: 6.25 µg/mL (≈ 8.63 µM)

## CC(C)Nc1nc(Nc2nc(-c3ccc(Cl)cc3)cs2)nc(NC(C)C)n1
[4]
  MIC: 5 µg/mL (≈ 12.4 µM)

## S=C(Nc1ccnc2cc(Cl)ccc12)N1CCN(c2nc(Nc3ccc(Cl)cc3)nc(Nc3ccc(Cl)cc3)n2)CC1
[8]
  zone of inhibition at 5 µg/disc: 9 to 17 mm
[9]
  zone of inhibition at 5 µg/disc: 16 to 17 mm
[10]
  zone of inhibition at 5 µg/disc: 9 to 17 mm
[11]
  zone of inhibition at 5 µg/disc: 16 to 17 mm

## COc1ccc(C2=NN=C3C(F)CC4=C(C(C5CC5)C=C(C(=O)O)C4=O)N3C2)cc1OC (stereo unspecified)
[5]
  MIC: 0.5 µg/mL (≈ 1.14 µM)
[6]
  MIC: 1 µg/mL (≈ 2.28 µM)

## O=C(N/N=C/c1ccc2c(c1)OCO2)c1ccc(Nc2nc(N3CCCCC3)nc(N3CCCCC3)n2)cc1
[12]
  MIC: 25 µg/mL
[13]
  CC50 at 72 h: 250 µg/mL (≈ 473 µM)

## Clc1ccc(-c2csc(Nc3nc(N4CCOCC4)nc(N4CCOCC4)n3)n2)cc1
[1]
  MIC: 0.63 to 5 µg/mL (≈ 1.37 to 10.9 µM)
[2]
  MIC: 0.63 to 5 µg/mL (≈ 1.37 to 10.9 µM)
[3]
  MIC: 0.63 to 5 µg/mL (≈ 1.37 to 10.9 µM)
[4]
  MIC: 0.63 to 5 µg/mL (≈ 1.37 to 10.9 µM)

## CC1=NN(c2ccccc2)C(C)C1Nc1nnc(Sc2nc(Nc3ccc(Cl)cc3)nc(Nc3ccc(Cl)cc3)n2)s1 (stereo unspecified)
[7]
  MIC: 6.25 µg/mL (≈ 9.83 µM)

## O=[N+]([O-])c1ccc(-c2csc(Nc3nc(N(c4ccccc4)c4ccccc4)nc(N(c4ccccc4)c4ccccc4)n3)n2)cc1
[1]
  MIC: 0.32 µg/mL (≈ 0.504 µM)
[4]
  MIC: 0.32 µg/mL (≈ 0.504 µM)

## Nc1ccc(C2=NN=C3C(F)CC4=C(C(C5CC5)C=C(C(=O)O)C4=O)N3C2)cc1 (stereo unspecified)
[6]
  MIC: 0.25 µg/mL (≈ 0.634 µM)

## COc1ccccc1C1=NN=C2C(F)CC3=C(C(C4CC4)C=C(C(=O)O)C3=O)N2C1 (stereo unspecified)
[5]
  MIC: 0.5 µg/mL (≈ 1.22 µM)
[6]
  MIC: 1 µg/mL (≈ 2.44 µM)

## O=[N+]([O-])c1ccc(-c2csc(Nc3nc(N4CCOCC4)nc(N4CCOCC4)n3)n2)cc1
[1]
  MIC: 0.63 to 5 µg/mL (≈ 1.34 to 10.6 µM)
[2]
  MIC: 0.63 to 5 µg/mL (≈ 1.34 to 10.6 µM)
[3]
  MIC: 0.63 to 5 µg/mL (≈ 1.34 to 10.6 µM)
[4]
  MIC: 0.63 to 5 µg/mL (≈ 1.34 to 10.6 µM)

## O=C(CNc1nc(NCC(=O)N/N=C/c2ccc(Cl)cc2)nc(N2CCN(c3nc(NCC(=O)N/N=C/c4ccc(Cl)cc4)nc(NCC(=O)N/N=C/c4ccc(Cl)cc4)n3)CC2)n1)N/N=C/c1ccc(Cl)cc1
[14]
  MIC: 12.5 to 25 µg/mL
[15]
  MIC: 12.5 to 25 µg/mL

## S=C(Nc1ccnc2cc(Cl)ccc12)N1CCN(c2nc(Nc3ccc(Br)cc3)nc(Nc3ccc(Br)cc3)n2)CC1
[8]
  zone of inhibition at 5 µg/disc: 9 to 17 mm
[9]
  zone of inhibition at 5 µg/disc: 16 to 17 mm
[10]
  zone of inhibition at 5 µg/disc: 9 to 17 mm
[11]
  zone of inhibition at 5 µg/disc: 16 to 17 mm

## O=C(N/N=C/c1ccccc1)c1ccc(Nc2nc(N3CCCCC3)nc(N3CCCCC3)n2)cc1
[13]
  CC50 at 72 h: 250 µg/mL (≈ 516 µM)
[16]
  MIC: 50 µg/mL

## Nc1nc(N)nc(Nc2ccc(C(=O)N/N=C/c3ccco3)cc2)n1
[12]
  MIC: 3.12 µg/mL
[13]
  CC50 at 72 h: 125 µg/mL (≈ 369 µM)
[16]
  MIC: 12.5 µg/mL

## O=C(O)C1=CC(C2CC2)C2=C(CC(F)C3=NN=C(c4ccc(Cl)cc4)CN32)C1=O (stereo unspecified)
[5]
  MIC: 8 µg/mL (≈ 19.3 µM)
[6]
  MIC: 8 µg/mL (≈ 19.3 µM)

## O=[N+]([O-])c1ccc(Nc2nc(Nc3ccc(S(=O)(=O)Nc4ncccn4)cc3)nc(N3CCCCC3)n2)cc1
[17]
  MIC: 25 µg/mL
[18]
  MIC: 50 µg/mL

## O=C(O)c1ccc(Nc2nc(Cl)nc(N3CCCCC3)n2)cc1
[14]
  MIC: 25 µg/mL
[19]
  MIC: 25 µg/mL
[13]
  CC50 at 72 h: 125 µg/mL (≈ 374 µM)
[20]
  MIC: 100 µg/mL
[15]
  MIC: 25 µg/mL
